Measured values: patent publication US10160762B2, “6-alkyl dihydropyrazolopyrimidinone compounds as PDE2 inhibitors” (Merck Sharp & Dohme Corp., priority 2015, dated 2018)

What follows are compounds tested against T1, Rhesus PDE2A3 (Macaca mulatta, UniProt B3VTJ2) (assay: PDE2 fluorescence polarization (IMAP FP) inhibition assay, rhesus PDE2A3). Conditions: Lab B; read-out: Rhesus PDE2 Ki (nM) Lab B.
T1 construct: made in house; host or cells: AD293 cells, transient transfection; supernatant of sonicated lysate
T1 sequence (B3VTJ2 1-941): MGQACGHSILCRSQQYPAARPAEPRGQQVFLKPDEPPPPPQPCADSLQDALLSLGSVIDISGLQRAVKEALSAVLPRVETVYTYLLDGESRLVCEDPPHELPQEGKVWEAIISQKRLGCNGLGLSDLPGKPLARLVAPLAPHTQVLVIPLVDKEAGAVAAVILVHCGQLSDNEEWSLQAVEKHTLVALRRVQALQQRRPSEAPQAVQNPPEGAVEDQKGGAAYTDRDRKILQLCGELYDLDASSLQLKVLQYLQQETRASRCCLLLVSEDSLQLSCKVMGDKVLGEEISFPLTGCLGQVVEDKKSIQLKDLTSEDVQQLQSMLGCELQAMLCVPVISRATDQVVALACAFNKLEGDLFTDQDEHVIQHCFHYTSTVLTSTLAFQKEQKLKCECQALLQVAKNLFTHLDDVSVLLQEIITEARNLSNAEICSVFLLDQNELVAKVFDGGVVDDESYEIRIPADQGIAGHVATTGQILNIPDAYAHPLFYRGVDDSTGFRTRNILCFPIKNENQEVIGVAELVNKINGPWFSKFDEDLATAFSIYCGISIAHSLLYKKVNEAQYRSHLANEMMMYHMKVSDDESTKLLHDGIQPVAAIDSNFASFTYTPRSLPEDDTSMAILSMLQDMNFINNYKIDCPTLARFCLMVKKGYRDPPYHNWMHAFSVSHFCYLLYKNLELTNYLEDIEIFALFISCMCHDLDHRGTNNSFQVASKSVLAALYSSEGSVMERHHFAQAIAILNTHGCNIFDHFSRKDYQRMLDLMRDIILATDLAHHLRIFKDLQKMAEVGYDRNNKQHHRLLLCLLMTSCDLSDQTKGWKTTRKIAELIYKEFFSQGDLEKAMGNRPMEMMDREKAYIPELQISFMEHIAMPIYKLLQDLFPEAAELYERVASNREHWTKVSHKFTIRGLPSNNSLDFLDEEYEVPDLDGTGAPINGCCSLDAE
Type: biochemical, rhesus macaque
How it was run: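 Enzyme source was the lysate supernatant of AD293 cells transiently expressing rhesus PDE2A3, diluted to give 20% conversion of 50 nM FAM-cAMP, with 1 µM cGMP as activator. Buffer was 10 mM Tris pH 7.2, 10 mM MgCl2, 1 mM DTT.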

| SMILES | Ki |
| --- | --- |
| Cc1nc2c(c(CF)nn2C(c2ccc(C(F)(F)F)cc2)C(C)(C)C)c(=O)[nH]1 (single isomer, unassigned) [Example 234, (S)- or (R)-1-(2,2-Dimethyl-1-(4-(trifluoromethyl)phenyl)propyl)-3-(fluoromethyl)-6-methyl-1H-pyrazolo[3,4-d]pyrimidin-4(5H)-one] | 15 nM |
| Cc1nc2c(c(CCO)nn2C(C)c2ccc(C(F)(F)F)cc2)c(=O)[nH]1 (single isomer, unassigned) [Example 250] | 2 nM |
| Cc1nc2c(c(C#N)nn2C(C)c2ccc(C(F)(F)F)cc2)c(=O)[nH]1 (single isomer, unassigned) [Example 252] | 20 nM |
| Cc1nc2c(c(C(F)(F)CO)nn2C(C)c2ccc(C(F)(F)F)cc2)c(=O)[nH]1 (single isomer, unassigned) [Example 255] | 1.5 nM |
| COCc1nn(C(C)c2ccc(C(F)(F)F)cc2)c2nc(C)[nH]c(=O)c12 (single isomer, unassigned) [Example 279] | 24 nM |
| Cc1nc2c(c(CC#N)nn2C(C)c2ccc(C(F)(F)F)cc2)c(=O)[nH]1 (single isomer, unassigned) [Example 280] | 71 nM |
| Cc1nc2c(c(CC#N)nn2C(C)c2ccc(C(F)(F)F)cc2)c(=O)[nH]1 (single isomer, unassigned) [Example 281] | 1.9 nM |
| Cc1nc2c(c(CC(F)F)nn2C(C)c2ccc(C(F)(F)F)cc2)c(=O)[nH]1 (single isomer, unassigned) [Example 285] | 179 nM |
| Cc1nc2c(c(CC(F)F)nn2C(C)c2ccc(C(F)(F)F)cc2)c(=O)[nH]1 (single isomer, unassigned) [Example 286] | 3.7 nM |
| COCc1nc2c(c(CO)nn2C(C)c2ccc(C(F)(F)F)cc2)c(=O)[nH]1 (single isomer, unassigned) [Example 293] | 3.6 nM |
| Cc1nc2c(c(CO)nn2C2(c3ccc(C(F)(F)F)cc3)CCC2)c(=O)[nH]1 [Example 78, 3-(Hydroxymethyl)-6-methyl-1-(1-(4-(trifluoromethyl)phenyl)cyclobutyl)-1H-pyrazolo[3,4-d]pyrimidin-4(5H)-one] | 6.7 nM |
| Cc1nc2c(c(C=O)nn2C(C)c2ccc(C(F)(F)F)cc2)c(=O)[nH]1 (centres unmarked) [Example 248, 6-Methyl-4-oxo-1-(1-(4-(trifluoromethyl)phenyl)ethyl)-4,5-dihydro-1H-pyrazolo[3,4-d]pyrimidine-3-carbaldehyde] | 53 nM |
| Cc1nc2c(c(/C=N\O)nn2C(C)c2ccc(C(F)(F)F)cc2)c(=O)[nH]1 (centres unmarked) [Example 251, (Z)-6-Methyl-4-oxo-1-(1-(4-(trifluoromethyl)phenyl)ethyl)-4,5-dihydro-1H-pyrazolo[3,4-d]pyrimidine-3-carbaldehyde oxime] | 8.9 nM |
| CC(c1ccc(C(F)(F)F)cc1)n1nc(CO)c2c(=O)[nH]c(C(F)F)nc21 (centres unmarked) [Example 284, 6-(Difluoromethyl)-3-(hydroxymethyl)-1-(1-(4-(trifluoromethyl)phenyl)ethyl)-1H-pyrazolo[3,4-d]pyrimidin-4(5H)-one] | 69 nM |
